Common to all, as to experiment: Zone of inhibition, diffusion agar technique
What all share (type): cell-based
What all share (details): beyond well diameter of 6 mm, 100 μg of nanoparticles

For assay [1], the system named is Aspergillus fumigatus (RCMB 02567). The method, then: (§1) Watermelon seed nanoparticles synthesized according to Example 1 were tested for antimicrobial activity against gram negative bacteria, gram positive bacteria, and fungi. Zone of inhibition studies were performed, the results of which are summarized in Table 2 (displaying mean zone of inhibition in mm ± standard deviation beyond well diameter of 6 mm). Testing used the diffusion agar technique with 6.0 mm well diameter and administration of 100 μg of the watermelon seed nanoparticles.

Assay [2] has as its system Escherichia coli (RCMB 010054). The method, then:
as §1

Assay [3] relates to Streptococcus pneumoniae (RCMB 010011). The method, then: as §1
The subject of assay [4] is Bacillus subtilis (RCMB 010068). The method, then:
as §1

For the compound `C[C@@H]1[C@H](O)[C@@H](C)/C=C/C=C/C=C/C=C/C=C/C=C/C=C/[C@H](O[C@@H]2O[C@H](C)[C@@H](O)[C@H](N)[C@@H]2O)C[C@@H]2O[C@](O)(C[C@@H](O)C[C@@H](O)[C@H](O)CC[C@@H](O)C[C@@H](O)CC(=O)O[C@H]1C)C[C@H](O)[C@H]2C(=O)O` [Amphotericin B], in assay [1], the “mean zone of inhibition” value was 21.7 ± 1.5 mm.
Regarding Gentamicin, the “mean zone of inhibition” value in assay [2] is listed as 20.3 ± 0.58 mm.
For the compound `CC1(C)S[C@@H]2[C@H](NC(=O)[C@H](N)c3ccccc3)C(=O)N2[C@H]1C(=O)O` [Ampicillin], the “mean zone of inhibition” value in assay [3] came to 21.0 ± 1.0 mm; in assay [4], 31.3 ± 1.5 mm.

(Values after US10588929B1, “Method of synthesizing watermelon seed particles” (KING SAUD UNIVERSITY, priority 2019, dated 2020).)
